Data reported in the NIST ThermoML archive (doi:10.1016/j.jct.2015.05.027).

Conditions: Liquid, Vibrating tube method

CCC(C)O (centres undefined) [butan-2-ol]
mass density [kg/m3]
Conditions | 293.15 K | 298.15 K | 313.15 K | 333.15 K | 353.21 K | 373.24 K | 393.27 K
100 kPa | 806.7 | 802.6 | 789.5 | 770.8 | 750.3 | – | –
1000 kPa | 807.4 | 803.3 | 790.3 | 771.7 | 751.4 | 729.1 | 704.8
5000 kPa | 810.4 | 806.4 | 793.6 | 775.6 | 756 | 734.5 | 711.4
10000 kPa | 814 | 810.1 | 797.7 | 780.2 | 761.3 | 740.8 | 718.8
15000 kPa | 817.4 | 813.6 | 801.6 | 784.6 | 766.4 | 746.6 | 725.6
20000 kPa | 820.7 | 817 | 805.2 | 788.8 | 771 | 751.9 | 731.7
25000 kPa | 823.9 | 820.2 | 808.5 | 792.6 | 775.4 | 757 | 737.4
30000 kPa | 826.9 | 823.4 | 812.1 | 796.3 | 779.5 | 761.6 | 742.7
35000 kPa | 829.9 | 826.3 | 815.3 | 800 | 783.5 | 766.1 | 747.8
40000 kPa | 832.7 | 829.2 | 818.4 | 803.4 | 787.2 | 770.4 | 752.5
45000 kPa | 835.4 | 832 | 821.3 | 806.6 | 790.8 | 774.4 | 757
50000 kPa | 838.1 | 834.7 | 824.2 | 809.7 | 794.5 | 778.1 | 761.2
55000 kPa | 840.6 | 837.4 | 827 | 812.8 | 797.7 | 781.9 | 765.4
60000 kPa | 843.2 | 839.9 | 829.8 | 815.8 | 801 | 785.4 | 769.2
65000 kPa | 845.7 | 842.4 | 832.5 | 818.7 | 804.1 | 788.8 | 773
70000 kPa | 848 | 844.8 | 835 | 821.4 | 807.2 | 792.1 | 776.6
80000 kPa | 852.6 | 849.5 | 839.9 | 826.7 | 812.9 | 798.5 | 783.4
90000 kPa | 857.1 | 854 | 844.7 | 831.9 | 818.3 | 804.3 | 789.8
100000 kPa | 861.2 | 858.2 | 849.1 | 836.7 | 823.5 | 809.8 | 795.8
110000 kPa | 865.3 | 862.4 | 853.4 | 841.2 | 828.5 | 815.1 | 801.5
120000 kPa | 869.2 | 866.2 | 857.5 | 845.5 | 833.1 | 820.1 | 806.8
130000 kPa | 873 | 870.1 | 861.5 | 849.8 | 837.6 | 824.9 | 811.9
140000 kPa | 876.6 | 873.7 | 865.4 | 853.8 | 842 | 829.5 | 816.8
